Results published in US8232273B2, “Heterocyclic compounds and methods of use” (Genentech, Inc., priority 2008, dated 2012).

Tests used:
Bcl-xL (GST-Bcl-xL) [1] = target: T1, Bcl-xL (GST-Bcl-xL) (Homo sapiens, UniProt Q07817); assay: AlphaScreen Bcl-xL binding assay, competition with biotinylated Bim peptide; design: made in house; conditions: values listed in the order of Table 1; read-out: Alphascreen results (IC50) against the Bcl-xL protein
From the text: The measurement of competition of compounds of the invention with Bim26-mer for a Bcl-2 family protein binding site using an Alpha Screen Bcl-xL binding assay:
The BH3 proteins AlphaScreen™ assay was used to identify active small molecules Bcl-2 family protein screen, e.g., Bcl-xL, hmMcl-1 screen.
The beads come in close proximity when the protein and the peptides interact. Donor beads contain a photosensitiser that converts oxygen to an excited form of O2 at an excitation of 680 nm. Energy is transformed from the singlet oxygen and reacts with chemiluminescers on the acceptor bead, resulting in light emission at 520-620 nm. […] With this information, the IC50 of each compound was calculated
GST-Bcl-xL, GST-hmMcl-1 and biotinylated GST proteins were prepared in-house and were stored as stock solutions at −80° C. The biotinylated-Bak, and biotinylated-Bim peptides were purchased from Auspep and were stored as 500 μM stock solutions in 100% DMSO at −80° C. […] DMSO was purchased from AnalaR.
Compounds of the invention were prepared as 10 mM stocks with 100% DMSO on the day prior to performing the assay. […] To achieve a final compound concentration of 1 μM, in a separate matrical plate, 28 μL of 100% DMSO and 2 μL of 10 mM compound was added to a well, mixed well, 2 μL of this solution was taken and added to 38 μL of 100% DMSO. 20 μL of this solution was added to the test matrical plate. Several control compounds were included in the test plates. For the control wells 15 μL 100% DMSO only was added to the appropriate wells of each plate. The compound plates were then serially diluted 2 fold using the MiniTrak. Once titrations were complete, the compound plate was immediately covered with a foil seal to prevent evaporation.
The assay and bead buffers were prepared fresh. Each titrated compound plate was assayed in duplicate. The following volumes were sufficient to run 12 Proxiplates (4 assay plates run in duplicate in each of Bclxl, hmMcl and counter assays)
Protein and Peptide Preparation; and Assay Performance • 1. The assay and bead buffers were used to prepare the acceptor and donor solutions. ALPHASCREEN™ beads are light sensitive and therefore prepared in a darkened room. 2.5 μL of beads were added per 1 mL of buffer. • 2. The volume of protein or peptide to add was calculated using the following formula:
V2=Volume of stock protein/Peptide to add to Acceptor/Donor solution • 3. The assay components were prepared as separate Acceptor and Donor Solutions. The Acceptor Solution contained Acceptor beads and target protein, while the Donor Solution contained Donor beads and biotinylated peptide.
• 4. After the solutions were prepared, they were left to incubate for 30 minutes at room temperature to allow the beads to bind to the protein and the peptide. • 5. 50 μL of Bcl-xL solution, 50 μL of hmMcl-1 solution and 50 μL of biotinylated-GST were added into separate deep wells on an assay plate. A control 50 μL Assay/Bead buffer was added separate well plates (no protein). • 6. 50 μL of Bim solution and 50 μL of Bak solution were added into separate deep well plates. • 7. Transfer 0.3 μL it of sample from the compound plate into each assay plate. • 8. Incubated for 30 mins at RT, then add 5 μL of the Donor solution. After addition of the Donor solution, tapped plates gently and sealed individually with adhesive film. • 9.
The percent inhibition was calculated using the following equation:
[formula] • x=RFU obtained after compound treatment • μ^−=RFU obtained for the negative controls (no protein controls) • μ^+=RFU obtained for the positive controls (DMSO vehicle controls)

Bcl-xL (GST-Bcl-xL) [2] = target: T1, Bcl-xL (GST-Bcl-xL); assay: TR-FRET binding assay, competition with F-Bak for the Bcl-xL binding site; conditions: values listed in the order of Table 1, read-out: TR-FRET assay results (Ki), Bcl-xL
Description: The measurement of competition of compounds of the invention with F-Bak for a Bcl-2 family protein (Bcl-xL) binding site using a Time Resolved Fluorescence Resonance Energy Transfer (TR-FRET) binding assay:
Test compounds were serially diluted in DMSO starting at 50 μM (2× starting concentration; 10% DMSO) and 10 μt transferred into a 384-well plate.
The samples are then mixed on a shaker for 1 minute then incubated for an additional 2 hours at room temperature. For each assay plate, a probe/antibody and protein/antibody/probe mixture were included as a negative and a positive control, respectively. Fluorescence was measured on the Envision (Perkin Elmer) using a 340/35 nm excitation filter and 520/525 (F-Bak) and 495/510 nm (Tb-labeled anti-his antibody) emission filters. Dissociation constants (Ki) were determined using Wang's equation (see, Wang, Z. X. An exact mathematical expression for describing competitive binding of two different ligands to a protein molecule. FEBS Lett. 1995 360:111-114). The TR-FRET assay can be performed in the presence of varying concentrations of human serum (HS) or fetal bovine serum (FBS).

T1 sequence (Q07817 whole entry, species assumed): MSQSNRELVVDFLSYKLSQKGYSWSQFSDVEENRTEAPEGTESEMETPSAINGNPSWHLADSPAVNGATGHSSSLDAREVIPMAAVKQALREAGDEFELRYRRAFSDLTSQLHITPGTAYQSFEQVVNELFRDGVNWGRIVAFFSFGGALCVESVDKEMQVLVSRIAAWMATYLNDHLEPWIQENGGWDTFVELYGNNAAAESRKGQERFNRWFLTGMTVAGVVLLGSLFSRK

| Structure (SMILES) | IC50 (Bcl-xL (GST-Bcl-xL) [1]) | Ki (Bcl-xL (GST-Bcl-xL) [2]) |
| --- | --- | --- |
| O=C(Nc1nc2ccccc2s1)c1cccc2c1CN(c1nc(C(=O)O)c(CCCSc3ccncc3)s1)CC2 [Example 3, 2-(8-(benzo[d]thiazol-2-ylcarbamoyl)-3,4-dihydroisoquinolin-2(1H)-yl)-5-(3-(pyridin-4-ylthio)propyl)thiazole-4-carboxylic acid] | 1 nM | 0.2 nM |
| N#CC1Cc2cc(OCCCc3sc(N4CCc5cccc(C(=O)Nc6nc7ccccc7s6)c5C4)nc3C(=O)O)ccc21 (stereo not shown) [Example 25, 2-(8-(benzo[d]thiazol-2-ylcarbamoyl)-3,4-dihydroisoquinolin-2(1H)-yl)-5-(3-(1-cyano-1,2-dihydrocyclobutabenzen-4-yloxy)propyl)thiazole-4-carboxylic acid] | 0.9 nM | 0.3 nM |
| CN1CCN(C(=O)c2ccc(OCCCc3ccc(N4CCc5cccc(C(=O)Nc6nc7ccccc7s6)c5C4)nc3C(=O)O)cc2)CC1 [Example 98, 6-(8-(benzo[d]thiazol-2-ylcarbamoyl)-3,4-dihydroisoquinolin-2(1H)-yl)-3-(3-(4-(4-methylpiperazine-1-carbonyl)phenoxy)propyl)picolinic acid] | 140 nM | 10 nM |
| O=C(Nc1nc2ccccc2s1)c1cccc2c1CN(c1nc(C(=O)O)c(CN3CCC3c3ccccc3)s1)CC2 (stereo not shown) [Example 71, 2-[8-(Benzothiazol-2-ylcarbamoyl)-3,4-dihydro-1H-isoquinolin-2-yl]-5-(2-phenyl-azetidin-1-ylmethyl)-thiazole-4-carboxylic acid] | 570 nM | 174 nM |
| N#Cc1c(-c2ccc(O)cc2)n[nH]c1NCCCc1sc(N2CCc3cccc(C(=O)Nc4nc5ccccc5s4)c3C2)nc1C(=O)O [Example 32, 2-(8-(benzo[d]thiazol-2-ylcarbamoyl)-3,4-dihydroisoquinolin-2(1H)-yl)-5-(3-(4-cyano-3-(4-hydroxyphenyl)-1H-pyrazol-5-ylamino)propyl)thiazole-4-carboxylic acid] | 50 nM | 17 nM |
| CN(C)CC#Cc1ccc(OCCCc2sc(N3CCc4cccc(C(=O)Nc5nc6ccccc6s5)c4C3)nc2C(=O)O)c(Cl)c1 [Compound 119, 2-(8-(benzo[d]thiazol-2-ylcarbamoyl)-3,4-dihydroisoquinolin-2(1H)-yl)-5-(3-(2-chloro-4-(3-(dimethylamino)prop-1-ynyl)phenoxy)propyl)thiazole-4-carboxylic acid] | 0.2 nM | 0.04 nM |
| Cc1cc(N2CCN(c3nc4ccccc4s3)CC2)ccc1OCCCc1sc(N2CCc3cccc(C(=O)Nc4nc5ccccc5s4)c3C2)nc1C(=O)O [Example 29, 5-(3-(4-(4-(benzo[d]thiazol-2-yl)piperazin-1-yl)-2-methylphenoxy)propyl)-2-(8-(benzo[d]thiazol-2-ylcarbamoyl)-3,4-dihydroisoquinolin-2(1H)-yl)thiazole-4-carboxylic acid] | 117 nM | 23 nM |
| O=C(Nc1nc2ccccc2s1)c1cccc2c1CN(c1nc(C(=O)O)c(CCCN3CCCC3)s1)CC2 [Example 18, 2-(8-(benzo[d]thiazol-2-ylcarbamoyl)-3,4-dihydroisoquinolin-2(1H)-yl)-5-(3-(pyrrolidin-1-yl)propyl)thiazole-4-carboxylic acid] | 6 nM | 4 nM |
| O=C(Nc1nc2ccccc2s1)c1cccc2c1CN(c1nc(C(=O)O)c(CCCOc3ccncc3)s1)CC2 [Example 10, 2-(8-(benzo[d]thiazol-2-ylcarbamoyl)-3,4-dihydroisoquinolin-2(1H)-yl)-5-(3-(pyridin-4-yloxy)propyl)thiazole-4-carboxylic acid] | 1 nM | 0.1 nM |
| O=C(Nc1nc2ccccc2s1)c1cccc2c1CN(c1nc(C(=O)O)c(CCCOc3ccc(C4(c5ccccc5)CCCC4)cc3)s1)CC2 [Example 24, 2-(8-(benzo[d]thiazol-2-ylcarbamoyl)-3,4-dihydroisoquinolin-2(1H)-yl)-5-(3-(4-(1-phenylcyclopentyl)phenoxy)propyl)thiazole-4-carboxylic acid] | 27 nM | 7 nM |
| NCc1ccc(OCCCc2sc(N3CCc4cccc(C(=O)Nc5nc6ccccc6s5)c4C3)nc2C(=O)O)cc1 [Compound 141, 5-(3-(4-(aminomethyl)phenoxy)propyl)-2-(8-(benzo[d]thiazol-2-ylcarbamoyl)-3,4-dihydroisoquinolin-2(1H)-yl)thiazole-4-carboxylic acid] | 3800 nM | 0.487 nM |
| N#Cc1c(-c2ccc(OCCCc3sc(N4CCc5cccc(C(=O)Nc6nc7ccccc7s6)c5C4)nc3C(=O)O)cc2)n[nH]c1N [Example 31, 5-(3-(4-(5-amino-4-cyano-1H-pyrazol-3-yl)phenoxy)propyl)-2-(8-(benzo[d]thiazol-2-ylcarbamoyl)-3,4-dihydroisoquinolin-2(1H)-yl)thiazole-4-carboxylic acid] | 0.3 nM | 0.1 nM |
| CN(C)CC#Cc1ccc(OCCCc2sc(N3CCc4cccc(C(=O)Nc5nc6ccccc6s5)c4C3)nc2C(=O)O)c(F)c1 [Example 116, 2-(8-(benzo[d]thiazol-2-ylcarbamoyl)-3,4-dihydroisoquinolin-2(1H)-yl)-5-(3-(4-(3-(dimethylamino)prop-1-ynyl)-2-fluorophenoxy)propyl)thiazole-4-carboxylic acid] | 0.2 nM | 0.004 nM |
| O=C(O)c1ccnc(N2CCc3cccc(C(=O)Nc4nc5ccccc5s4)c3C2)n1 [Compound 122, 2-(8-(benzo[d]thiazol-2-ylcarbamoyl)-3,4-dihydroisoquinolin-2(1H)-yl)pyrimidine-4-carboxylic acid] | 7500 nM | – |
| O=C(O)c1coc(N2CCc3cccc(C(=O)Nc4nc5ccccc5s4)c3C2)n1 [Compound 124, 2-(8-(benzo[d]thiazol-2-ylcarbamoyl)-3,4-dihydroisoquinolin-2(1H)-yl)oxazole-4-carboxylic acid] | 865 nM | – |
| O=C(Nc1nc2ccccc2s1)c1cccc2c1CN(c1ccc(/C=C/c3ccccc3)c(C(=O)O)n1)CC2 [Compound 135, (E)-6-(8-(benzo[d]thiazol-2-ylcarbamoyl)-3,4-dihydroisoquinolin-2(1H)-yl)-3-styrylpicolinic acid] | 92.4 nM | – |
| O=C(Nc1nc2ccccc2s1)c1cccc2c1CN(c1ccc(/C=C/Cc3ccccc3)c(C(=O)O)n1)CC2 [Compound 138, (E)-6-(8-(benzo[d]thiazol-2-ylcarbamoyl)-3,4-dihydroisoquinolin-2(1H)-yl)-3-(3-phenylprop-1-enyl)picolinic acid] | 3 nM | – |
| O=C(Nc1nc2ccccc2s1)c1cccc2c1CN(c1ccc(CCCOc3ccc(OCCN4CCCC4)cc3)c(C(=O)O)n1)CC2 [Example 106, 6-(8-(benzo[d]thiazol-2-ylcarbamoyl)-3,4-dihydroisoquinolin-2(1H)-yl)-3-(3-(4-(2-(pyrrolidin-1-yl)ethoxy)phenoxy)propyl)picolinic acid] | 1.1 nM | – |
